Like-named read-outs stand apart in the source and are kept apart here. Marks after values point to notes of the source that are not given here. Blank lines part the entries; values can stand above or below the compound they belong to. Numbered stars: 1 amine (or outer) side, 2 acyl side, 3 side chain; on linkers, the order of the positions; unused ones are H or OH. Bridge positions count the residues as written; N and C are the ends. Square brackets hold non-standard residues; d marks the D form. Peptide text beside a SMILES is read from it. * marks the point of attachment. C20 diacid = O=C(O)CCCCCCCCCCCCCCCCCCC(=O)*; γGlu = O=C(O)[C@H](CCC(=O)[*:2])N[*:1]; NMeI = CC[C@H](C)[C@H](NC)C(=O)O; Sar = CNCC(=O)O
Legend:
[1] = molecular target: T1, human amylin receptor 3 (hAMYR3) consisting of hCTR2 co-expressed with human Receptor Activity Modifying Protein 3 (hRAMP3) (Homo sapiens, UniProt O60896+P30988); test: hAMYR3 assay: induction of cAMP (AlphaScreen cAMP Assay kit) in COS7 cells expressing hAMYR3; type: cell-based
T1 construct: expressed in transfected cells
T1 sequence (P30988 25-474): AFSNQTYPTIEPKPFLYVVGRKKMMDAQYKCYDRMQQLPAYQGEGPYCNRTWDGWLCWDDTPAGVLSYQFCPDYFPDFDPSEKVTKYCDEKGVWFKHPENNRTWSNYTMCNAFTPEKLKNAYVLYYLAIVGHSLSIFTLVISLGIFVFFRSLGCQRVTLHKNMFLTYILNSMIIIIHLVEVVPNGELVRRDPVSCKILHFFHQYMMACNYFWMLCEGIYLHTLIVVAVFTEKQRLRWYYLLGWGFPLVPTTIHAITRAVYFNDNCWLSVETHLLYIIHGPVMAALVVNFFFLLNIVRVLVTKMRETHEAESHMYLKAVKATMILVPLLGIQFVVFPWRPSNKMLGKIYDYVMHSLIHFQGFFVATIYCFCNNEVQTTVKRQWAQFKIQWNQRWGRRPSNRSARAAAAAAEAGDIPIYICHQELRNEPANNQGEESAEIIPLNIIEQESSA
T1 sequence (O60896 24-148 partner): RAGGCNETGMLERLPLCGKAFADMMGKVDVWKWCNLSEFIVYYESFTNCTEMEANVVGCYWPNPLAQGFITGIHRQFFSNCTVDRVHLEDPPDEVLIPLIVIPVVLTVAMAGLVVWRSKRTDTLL
Method in brief: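 Stable COS7 clone co-expressing hCTR2 and hRAMP3, stimulated 15 min at 37° C with increasing peptide in Tyrode buffer pH 7.4 with 100 µM IBMX and 0.1% casein. cAMP measured by AlphaScreen after lysis; EC50 and % efficacy versus pramlintide from 4PL fit.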

[2] = Solubility assessment (turbidity absorbance at 325 nm); type: physicochemical; conditions: stock 2 mg/ml diluted 1:1, ambient temperature (typically 25°C), n=1; for Solubility, Acetate buffer pH 4: 100 mM acetate buffer pH 4.0; for Solubility, Acetate buffer pH 5: 100 mM acetate buffer pH 5.0; for Solubility, Histidine buffer pH 6: 100 mM histidine buffer pH 6.0; for Solubility, Histidine buffer pH 7: 100 mM histidine buffer pH 7.0; for Solubility, Phosphate buffer pH 6: 100 mM phosphate buffer pH 6.0; for Solubility, Phosphate buffer pH 7: 100 mM phosphate buffer pH 7.0; for Solubility, Phosphate buffer pH 7.5: 100 mM phosphate buffer pH7.5
Method in brief: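 Peptide stock (2 mg/ml) in water acidified to pH 2.5 with HCl was diluted 1:1 into 100 mM acetate (pH 4.0, 5.0), histidine (pH 6.0, 7.0) or phosphate (pH 6.0, 7.0, 7.5) buffer. A280 and A325 were read at about 25°C, n=1. A325 ≤ 0.02 meant solubility ≥ 1 mg/ml.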

[3] = Assessment of physical stability: fibril formation detected with Thioflavin T (ThT), lag-time; type: physicochemical; conditions: 1 mg/ml peptide, 40 µM ThT, FND = Fibrillation not detected; for Fibrillation lag time (hours) pH 4.0 (Ac): 50 mM acetate buffer pH 4.0, 96 hours at 40°C; for Fibrillation lag time (hours) pH 7.0 (His): 50 mM histidine buffer pH 7.0, 96 hours at 40°C; for Fibrillation lag time (hours) pH 7.0 (Ph): 50 mM phosphate buffer pH 7.0, 96 hours at 40°C
Method in brief: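 Test peptide at 1 mg/ml with 40 µM ThT in 50 mM phosphate (pH 7.0), 50 mM histidine (pH 7.0) or 50 mM acetate (pH 4.0), in triplicate, 40° C. for 96 h. Fluorescence read every 10 min after 300 s agitation. Lag-time (h) taken as intersection of linear fits to initial stable and growth phases.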

SMILES: CC[C@H](C)[C@@H](C(=O)N[C@@H](CC(C)C)C(=O)N[C@@H](CO)C(=O)N[C@@H](CO)C(=O)N[C@H](C(=O)N[C@@H](CC(N)=O)C(=O)N[C@H](C(=O)NCC(=O)N[C@@H](CO)C(=O)N[C@@H](CC(N)=O)C(=O)N[C@H](C(=O)N1CCC[C@H]1C(N)=O)[C@@H](C)O)C(C)C)[C@@H](C)O)N(C)C(=O)[C@H](C)NC(=O)CN(C)C(=O)[C@H](Cc1ccccc1)NC(=O)[C@H](CC(N)=O)NC(=O)[C@H](CC(N)=O)NC(=O)[C@H](CO)NC(=O)[C@H](CO)NC(=O)[C@H](Cc1c[nH]cn1)NC(=O)[C@H](Cc1c[nH]cn1)NC(=O)[C@H](CC(C)C)NC(=O)[C@H](Cc1ccccc1)NC(=O)[C@H](CCC(=O)O)NC(=O)[C@H](C)NC(=O)[C@H](CC(C)C)NC(=O)[C@H](CCCNC(=N)N)NC(=O)[C@H](CCC(N)=O)NC(=O)[C@@H](NC(=O)[C@H](C)NC(=O)[C@@H]1CSSC[C@H](NC(=O)[C@H](CCCNC(=N)N)NC(=O)CC[C@H](NC(=O)CCCCCCCCCCCCCCCCCCC(=O)O)C(=O)O)C(=O)N[C@@H](CC(N)=O)C(=O)N[C@@H]([C@@H](C)O)C(=O)N[C@@H](C)C(=O)N[C@@H]([C@@H](C)O)C(=O)N1)[C@@H](C)O [Compound 1, [19CD]-isoGlu-RC()NTATC()ATQRLAEFLHHSSNNF-Gly(Me)-A-Ile(Me)-LSSTNVGSNTP-NH2] ({C20 diacid-γGlu}-RCNTATCATQRLAEFLHHSSNNF[Sar]A[NMeI]LSSTNVGSNTP-NH2; disulfide 2-7)
EC50 [1]: 0.21 nM
Solubility, Acetate buffer pH 4 [2]: SS (SS indicates solubility ≥ 1mg/ml)
Solubility, Acetate buffer pH 5 [2]: SS (SS indicates solubility ≥ 1mg/ml)
Solubility, Histidine buffer pH 6 [2]: SS (SS indicates solubility ≥ 1mg/ml)
Solubility, Histidine buffer pH 7 [2]: SS (SS indicates solubility ≥ 1mg/ml)
Solubility, Phosphate buffer pH 6 [2]: SS (SS indicates solubility ≥ 1mg/ml)
Solubility, Phosphate buffer pH 7 [2]: SS (SS indicates solubility ≥ 1mg/ml)
Solubility, Phosphate buffer pH 7.5 [2]: SS (SS indicates solubility ≥ 1mg/ml)
Fibrillation lag time (hours) pH 4.0 (Ac) [3]: FND^§§
Fibrillation lag time (hours) pH 7.0 (His) [3]: FND
Fibrillation lag time (hours) pH 7.0 (Ph) [3]: FND

SMILES: CC[C@H](C)[C@@H](C(=O)N[C@@H](CC(C)C)C(=O)N[C@@H](CO)C(=O)N[C@@H](CO)C(=O)N[C@H](C(=O)N[C@@H](CC(N)=O)C(=O)N[C@H](C(=O)NCC(=O)N[C@@H](CO)C(=O)N[C@@H](CC(N)=O)C(=O)N[C@H](C(=O)N1CCC[C@H]1C(N)=O)[C@@H](C)O)C(C)C)[C@@H](C)O)N(C)C(=O)[C@H](C)NC(=O)CN(C)C(=O)[C@H](Cc1ccccc1)NC(=O)[C@H](CC(N)=O)NC(=O)[C@H](CC(N)=O)NC(=O)[C@H](CO)NC(=O)[C@H](CO)NC(=O)[C@H](CCCNC(=N)N)NC(=O)[C@H](Cc1c[nH]cn1)NC(=O)[C@H](CC(C)C)NC(=O)[C@H](Cc1ccccc1)NC(=O)[C@H](CCC(=O)O)NC(=O)[C@H](C)NC(=O)[C@H](CC(C)C)NC(=O)[C@H](CCCNC(=N)N)NC(=O)[C@H](CCC(N)=O)NC(=O)[C@@H](NC(=O)[C@H](C)NC(=O)[C@@H]1CSSC[C@H](NC(=O)[C@H](CCCNC(=N)N)NC(=O)CC[C@H](NC(=O)CCCCCCCCCCCCCCCCCCC(=O)O)C(=O)O)C(=O)N[C@@H](CC(N)=O)C(=O)N[C@@H]([C@@H](C)O)C(=O)N[C@@H](C)C(=O)N[C@@H]([C@@H](C)O)C(=O)N1)[C@@H](C)O [Compound 18, [19CD]-isoGlu-RC()NTATC()ATQRLAEFLHRSSNNF-Gly(Me)-A-Ile(Me)-LSSTNVGSNTP-NH2] ({C20 diacid-γGlu}-RCNTATCATQRLAEFLHRSSNNF[Sar]A[NMeI]LSSTNVGSNTP-NH2; disulfide 2-7)
EC50 [1]: 0.17 nM
Solubility, Acetate buffer pH 4 [2]: SS (SS indicates solubility ≥ 1mg/ml)
Solubility, Acetate buffer pH 5 [2]: SS (SS indicates solubility ≥ 1mg/ml)
Solubility, Histidine buffer pH 6 [2]: SS (SS indicates solubility ≥ 1mg/ml)
Solubility, Histidine buffer pH 7 [2]: SS (SS indicates solubility ≥ 1mg/ml)
Solubility, Phosphate buffer pH 6 [2]: SS (SS indicates solubility ≥ 1mg/ml)
Solubility, Phosphate buffer pH 7 [2]: SS (SS indicates solubility ≥ 1mg/ml)
Solubility, Phosphate buffer pH 7.5 [2]: SS (SS indicates solubility ≥ 1mg/ml)
Fibrillation lag time (hours) pH 4.0 (Ac) [3]: 20 hours
Fibrillation lag time (hours) pH 7.0 (His) [3]: 33 hours
Fibrillation lag time (hours) pH 7.0 (Ph) [3]: 33 hours

SMILES: CC[C@H](C)[C@@H](C(=O)N[C@@H](CC(C)C)C(=O)N[C@@H](CO)C(=O)N[C@@H](CO)C(=O)N[C@H](C(=O)N[C@@H](CC(N)=O)C(=O)N[C@H](C(=O)NCC(=O)N[C@@H](CO)C(=O)N[C@@H](CC(N)=O)C(=O)N[C@H](C(=O)N1CCC[C@H]1C(N)=O)[C@@H](C)O)C(C)C)[C@@H](C)O)N(C)C(=O)[C@H](C)NC(=O)CN(C)C(=O)[C@H](Cc1ccccc1)NC(=O)[C@H](CC(N)=O)NC(=O)[C@H](CC(N)=O)NC(=O)[C@H](CO)NC(=O)[C@H](CO)NC(=O)[C@H](CCCNC(=N)N)NC(=O)[C@H](Cc1c[nH]cn1)NC(=O)[C@H](CC(C)C)NC(=O)[C@H](Cc1ccccc1)NC(=O)[C@H](CCC(=O)O)NC(=O)[C@H](C)NC(=O)[C@H](CC(C)C)NC(=O)[C@H](CCCNC(=N)N)NC(=O)[C@H](CCC(N)=O)NC(=O)[C@@H](NC(=O)[C@H](C)NC(=O)[C@@H]1CSSC[C@H](NC(=O)[C@H](CCCCN)NC(=O)[C@H](CCCCN)NC(=O)CC[C@H](NC(=O)CCCCCCCCCCCCCCCCCCC(=O)O)C(=O)O)C(=O)N[C@@H](CC(N)=O)C(=O)N[C@@H]([C@@H](C)O)C(=O)N[C@@H](C)C(=O)N[C@@H]([C@@H](C)O)C(=O)N1)[C@@H](C)O [Compound 87, [19CD]-isoGlu-KKC()NTATC()ATQRLAEFLHRSSNNF-Gly(Me)-A-Ile(Me)-LSSTNVGSNTP-NH2] ({C20 diacid-γGlu}-KKCNTATCATQRLAEFLHRSSNNF[Sar]A[NMeI]LSSTNVGSNTP-NH2; disulfide 3-8)
Solubility, Acetate buffer pH 4 [2]: SS (SS indicates solubility ≥ 1mg/ml)
Solubility, Acetate buffer pH 5 [2]: SS (SS indicates solubility ≥ 1mg/ml)
Solubility, Histidine buffer pH 6 [2]: SS (SS indicates solubility ≥ 1mg/ml)
Solubility, Histidine buffer pH 7 [2]: SS (SS indicates solubility ≥ 1mg/ml)
Solubility, Phosphate buffer pH 6 [2]: SS (SS indicates solubility ≥ 1mg/ml)
Solubility, Phosphate buffer pH 7 [2]: SS (SS indicates solubility ≥ 1mg/ml)
Solubility, Phosphate buffer pH 7.5 [2]: SS (SS indicates solubility ≥ 1mg/ml)
Fibrillation lag time (hours) pH 4.0 (Ac) [3]: 78^‡ hours
Fibrillation lag time (hours) pH 7.0 (His) [3]: FND
Fibrillation lag time (hours) pH 7.0 (Ph) [3]: 50^‡‡ hours

EC50 ([1]; cAMP induction in COS7 cells expressing hAMYR3, average of a minimum of 3 determinations, read-out: hAMY R3 EC50): 0.12 nM
Fibrillation lag time (hours) pH 4.0 (Ac) [3]: FND
Fibrillation lag time (hours) pH 7.0 (His) [3]: FND
Fibrillation lag time (hours) pH 7.0 (Ph) [3]: FND
SMILES: CC[C@H](C)[C@@H](C(=O)N[C@@H](CC(C)C)C(=O)N[C@@H](CO)C(=O)N[C@@H](CO)C(=O)N[C@H](C(=O)N[C@@H](CCC(=O)O)C(=O)N[C@H](C(=O)NCC(=O)N[C@@H](CO)C(=O)N[C@@H](CCC(=O)O)C(=O)N[C@H](C(=O)N1CCC[C@H]1C(N)=O)[C@@H](C)O)C(C)C)[C@@H](C)O)N(C)C(=O)[C@H](C)NC(=O)CN(C)C(=O)[C@H](Cc1ccccc1)NC(=O)[C@H](CO)NC(=O)[C@H](CO)NC(=O)[C@H](CO)NC(=O)[C@H](CO)NC(=O)[C@H](CCCNC(=N)N)NC(=O)[C@H](Cc1c[nH]cn1)NC(=O)[C@H](CC(C)C)NC(=O)[C@H](Cc1ccccc1)NC(=O)[C@H](CCC(=O)O)NC(=O)[C@H](C)NC(=O)[C@H](CC(C)C)NC(=O)[C@H](CCCNC(=N)N)NC(=O)[C@H](C)NC(=O)[C@@H](NC(=O)[C@H](C)NC(=O)[C@@H]1CSSC[C@H](NC(=O)[C@H](CCCNC(=N)N)NC(=O)CC[C@H](NC(=O)CCCCCCCCCCCCCCCCCCC(=O)O)C(=O)O)C(=O)N[C@@H](CC(N)=O)C(=O)N[C@@H]([C@@H](C)O)C(=O)N[C@@H](C)C(=O)N[C@@H]([C@@H](C)O)C(=O)N1)[C@@H](C)O [Compound 118, [19CD]-isoGlu-RC()NTATC()ATARLAEFLHRSSSSF-Gly(Me)-A-Ile(Me)-LSSTEVGSETP-NH2] ({C20 diacid-γGlu}-RCNTATCATARLAEFLHRSSSSF[Sar]A[NMeI]LSSTEVGSETP-NH2; disulfide 2-7)

— patent publication EP3046573B1, “AMYLIN ANALOGUES” (Zealand Pharma A/S, priority 2013, dated 2015)
